Source: ChEMBL document CHEMBL6074689 (Eur J Med Chem, 2025)
Active and inactive are the calls of the source. No cut-off for these calls is given here.

Key:
[1] = biological target: T1, Acetylcholinesterase (Homo sapiens, UniProt P22303); experiment: Inhibition of human recombinant AChE expressed in HEK293 cells using acetylthiocholine iodide as substrate preincubated with compound for 30 mins followed by substrate addition and measured after 30 mins by DTNB reagent based Ellman's method
[2] = Antioxidant activity assessed as DPPH radical scavenging activity at 200 uM incubated for 30 mins relative to control; assay type: functional
[3] = biological target: Cholinesterase (Equus caballus, UniProt P81908); experiment: Inhibition of equine serum BChE using acetylthiocholine iodide as substrate preincubated with compound for 30 mins followed by substrate addition and measured after 30 mins by DTNB reagent based Ellman's method
Chain of Cholinesterase (P81908 whole entry, the tested form may be a part): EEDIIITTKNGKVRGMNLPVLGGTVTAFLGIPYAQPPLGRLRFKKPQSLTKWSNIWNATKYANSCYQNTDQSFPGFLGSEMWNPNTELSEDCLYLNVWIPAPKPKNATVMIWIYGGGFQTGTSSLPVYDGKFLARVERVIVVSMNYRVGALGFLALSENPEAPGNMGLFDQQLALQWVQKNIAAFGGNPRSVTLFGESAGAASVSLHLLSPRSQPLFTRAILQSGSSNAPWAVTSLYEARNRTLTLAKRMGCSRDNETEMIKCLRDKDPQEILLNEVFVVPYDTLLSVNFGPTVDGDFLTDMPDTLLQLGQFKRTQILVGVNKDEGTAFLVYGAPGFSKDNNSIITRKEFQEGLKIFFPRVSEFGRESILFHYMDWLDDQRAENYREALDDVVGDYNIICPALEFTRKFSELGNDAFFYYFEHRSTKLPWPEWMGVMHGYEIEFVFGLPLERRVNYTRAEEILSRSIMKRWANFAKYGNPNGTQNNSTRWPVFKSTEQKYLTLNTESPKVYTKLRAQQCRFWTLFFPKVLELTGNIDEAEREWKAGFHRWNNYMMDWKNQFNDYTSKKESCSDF

[4] = tested on: Drosophila melanogaster; experiment: Anti-alzheimer activity in ey-GAL4 driven UAS-amyloid beta (1 to 42) induced Drosophila melanogaster Oregon R-positive assessed as rescued eye phenotype at 100 uM by Stereo zoom microscopic imaging analysis relative to control; assay type: functional
[5] = Toxicity in Drosophila melanogaster Oregon R-positive assessed as reduction in eclosed flies at 200 uM measured for 15 days relative to control; parameters: scale not given: the % may be the effect or the level left; conditions: 360 h, time 15 day
[6] = tested on: Mus musculus; experiment: Antioxidant activity against scopolamine-induced Swiss albino mouse model assessed as increase in SOD level at 3 mg/kg, po by absorbance based analysis; assay type: functional, organism-based
[7] = tested on: Drosophila melanogaster; experiment: Anti-alzheimer activity in ey-GAL4 driven UAS-amyloid beta (1 to 42) induced Drosophila melanogaster Oregon R-positive assessed as severe eye phenotype at 50 uM by Stereo zoom microscopic imaging analysis relative to control; assay type: functional
[8] = biological target: T1, Acetylcholinesterase; experiment: Displacement of propidium iodide from human AChE PAS assessed as reduction in fluorescence intensity at 5 uM incubated for 6 hrs by fluorescence based analysis relative to control; parameters: scale not given: the % may be the effect or the level left
[9] = biological target: T1, Acetylcholinesterase; experiment: Displacement of propidium iodide from human AChE PAS assessed as reduction in fluorescence intensity at 0.1 uM incubated for 6 hrs by fluorescence based analysis relative to control; parameters: scale not given: the % may be the effect or the level left
[10] = tested on: Mus musculus; experiment: Antialzheimer activity in scopolamine-induced Swiss albino mouse model assessed as improvement in memory retention by measuring time spent in platform quadrant at 3 mg/kg, po preincubated with compound for 30 mins followed by scopolamine induction and measured after 5 days by Morris water maze test; assay type: functional, organism-based; conditions: time 7230.0 min
[11] = Toxicity in Drosophila melanogaster Oregon R-positive assessed as reduction in eclosed flies at 100 uM measured for 15 days relative to control; parameters: scale not given: the % may be the effect or the level left; conditions: 360 h, time 15 day
[12] = biological target: T1, Acetylcholinesterase; experiment: Displacement of propidium iodide from human AChE PAS assessed as reduction in fluorescence intensity at 1 uM incubated for 6 hrs by fluorescence based analysis relative to control; parameters: scale not given: the % may be the effect or the level left
[13] = tested on: Mus musculus; experiment: Antialzheimer activity in scopolamine-induced Swiss albino mouse model assessed as reduction in BChE level at 3 mg/kg, po preincubated with compound for 30 mins followed by scopolamine induction and measured after 30 mins; assay type: functional, organism-based; conditions: time 1.0 hrs
[14] = biological target: T1, Acetylcholinesterase; experiment: Displacement of propidium iodide from human AChE PAS assessed as reduction in fluorescence intensity at 0.01 uM incubated for 6 hrs by fluorescence based analysis relative to control; parameters: scale not given: the % may be the effect or the level left
[15] = tested on: Drosophila melanogaster; experiment: Inhibition of oxidative stress in y-GAL4 driven UAS-amyloid beta (1 to 42) induced Drosophila melanogaster Oregon R-positive assessed as reduction in ROS level at 50 uM incubated for 30 mins by H2DCFDA staining based analysis; assay type: functional, organism-based
[16] = tested on: Drosophila melanogaster; experiment: Anti-alzheimer activity in ey-GAL4 driven UAS-amyloid beta (1 to 42) induced Drosophila melanogaster Oregon R-positive assessed as reduction in superoxide level at 100 uM by fluorescence based analysis; assay type: functional, organism-based
[17] = tested on: Drosophila melanogaster; experiment: Anti-alzheimer activity in ey-GAL4 driven UAS-amyloid beta (1 to 42) induced Drosophila melanogaster Oregon R-positive assessed as mild eye phenotype at 100 uM by Stereo zoom microscopic imaging analysis relative to control; assay type: functional
[18] = tested on: Drosophila melanogaster; experiment: Anti-alzheimer activity in ey-GAL4 driven UAS-amyloid beta (1 to 42) induced Drosophila melanogaster Oregon R-positive assessed as mild eye phenotype at 50 uM by Stereo zoom microscopic imaging analysis relative to control; assay type: functional
[19] = Toxicity in Drosophila melanogaster Oregon R-positive assessed as reduction in eclosed flies at 50 uM measured for 15 days relative to control; parameters: scale not given: the % may be the effect or the level left; conditions: 360 h, time 15 day
[20] = Toxicity in Drosophila melanogaster Oregon R-positive assessed as reduction in eclosed flies at 400 uM measured for 15 days relative to control; parameters: scale not given: the % may be the effect or the level left; conditions: 360 h, time 15 day

T1 sequence (P22303 whole entry): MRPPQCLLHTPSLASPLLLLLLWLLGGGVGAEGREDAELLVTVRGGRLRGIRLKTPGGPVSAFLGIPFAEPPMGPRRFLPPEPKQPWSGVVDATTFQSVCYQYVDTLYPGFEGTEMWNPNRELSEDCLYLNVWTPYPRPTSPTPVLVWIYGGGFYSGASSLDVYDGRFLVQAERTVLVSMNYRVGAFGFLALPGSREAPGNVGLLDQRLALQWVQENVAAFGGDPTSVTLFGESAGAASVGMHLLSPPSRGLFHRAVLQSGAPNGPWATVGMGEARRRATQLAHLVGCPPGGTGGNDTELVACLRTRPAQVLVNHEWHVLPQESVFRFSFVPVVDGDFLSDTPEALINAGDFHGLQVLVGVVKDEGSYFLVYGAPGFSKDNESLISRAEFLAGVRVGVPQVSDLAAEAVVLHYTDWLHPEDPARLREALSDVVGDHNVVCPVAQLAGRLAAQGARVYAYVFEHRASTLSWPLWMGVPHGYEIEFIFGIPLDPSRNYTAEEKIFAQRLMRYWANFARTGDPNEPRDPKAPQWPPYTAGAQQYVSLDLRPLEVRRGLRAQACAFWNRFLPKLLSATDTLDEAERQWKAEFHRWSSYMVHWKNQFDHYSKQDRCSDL

Row | SMILES | IC50 [1] | Activity [2] | IC50 [3] | Activity [4] | Activity [5] | Activity [6] | Activity [7] | Activity [8] | Activity [9] | Activity [10] | Activity [11] | Activity [12] | Activity [13] | Activity [14] | Activity [15] | Activity [16] | Activity [17] | Activity [18] | Activity [19] | Activity [20]
1 | CC(c1cccc(OC(=O)NCCc2c[nH]c3ccc(Cl)cc23)c1)N(C)C (stereo not drawn) | 13.8 nM | 33.3% | 2.14 nM | – | – | – | – | – | – | – | – | – | – | – | – | – | – | – | – | –
2 | CC(c1cccc(OC(=O)NCCc2c[nH]c3ccccc23)c1)N(C)C (stereo not drawn) | 24.5 nM | – | 14.8 nM | – | – | – | – | – | – | – | – | – | – | – | – | – | – | – | – | –
3 | CCN(C)C(=O)Oc1cccc([C@H](C)N(C)C)c1 [RIVASTIGMINE] | – | 3.71% | – | 33% | 73% | Active | 23% | 8.74% | 2.96% | Active | 95% | 6.3% | Active | 1.61% | Active | Active | 40% | 43% | 108% | 29%
